# Assay results as given in patent US9868730B2, “Kappa opioid receptor selective compounds, compositions, and uses thereof” (The Trustees of Columbia University in the City of New York, priority 2013, dated 2018).
# “Also recorded” adds a separate entry of the source.
# Biological target: T1, KOP receptor (Homo sapiens, UniProt P41145)
# Assay: BRET-based arrestin3 recruitment assay
# Assay type: cell-based
# Design: host or cells: HEK293T
# Conditions: hKOP-RLuc8 with arrestin3-mVenus; read-out: potency of arrestin3 recruitment at hKOP
# From the text: (§1) The cDNAs for human KOP (hKOP) receptor and the G protein GαoB were obtained from the Missouri S&T cDNA Resource Center. For arrestin recruitment experiments, full-length Renilla luciferase 8 (RLuc8, provided by S. Gambhir) was fused in-frame to the C terminus of the hKOP receptor in the pcDNA3.1 vector. The following human G protein constructs were provided by C. Gales (Gales et al., 2006; Sauliere et al., 2012): GαoB with RLuc8 inserted at position 91 (GαoB-RLuc8); untagged Gβ1 (β1); untagged Gγ2 (γ2). The human γ2 subunit was fused to full-length mVenus at its N terminus (mVenus-γ2), and the fusion construct human arrestin3-mVenus was used as previously described (Klewe et al., 2008). All constructs were confirmed by sequencing analysis. A total of 20 μg of plasmid cDNA (e.g. 0.2 μg of hKOR-RLuc8, 15 μg of arrestin3-mVenus, and 4.8 μg of pcDNA3.1) was transfected into HEK-293T cells using polyethylenimine (Polysciences Inc., Warrington, Pa.) in a 1:3 ratio in 10-cm dishes. Cells were maintained in culture with DMEM supplemented with 10% FBS. The transfected ratio among receptor, Gα, β1, and γ2, or arrestin was optimized by testing various ratios of plasmids encoding the different sensors. Experiments were performed 48 hours after transfection.
# BRET was performed as described (Guo et al., 2008). Briefly, two days after transfection, cells were harvested, washed, and re-suspended in a phosphate-buffered saline (PBS) solution. Approximately 200,000 cells/well were distributed in 96-well plates, and 5 μM coelenterazine H (luciferase substrate) was added to each well. Five minutes after the addition of coelenterazine H, ligands were added to each well, and after 2 minutes for G protein activation or 5 minutes for arrestin recruitment, the BRET signal was determined by quantifying and calculating the ratio of the light emitted by mVenus, the energy acceptor (510-540 nm), over that emitted by RLuc8, the energy donor (485 nm). The drug-induced BRET signal was normalized, taking the Emax of the ethylketocyclazocine (EKC)-induced response as 100%. […]
row,SMILES,EC50 [µM]
1,"O=C(CN1CCCC1C(=O)Nc1nccs1)Nc1cccc(F)c1 (racemic) [MCKK-17, 1-(2-(3-fluorophenylamino)-2-oxoethyl)-N-(thiazol-2-yl)pyrrolidine-2-carboxamide]",164 ± 38

# Biological target: T1, KOP receptor
# Assay: G protein bias from BRET-based G protein activation and arrestin recruitment assays
# Assay type: cell-based
# Conditions: not given
row,SMILES,bias toward G protein activation over arrestin
1,"CC[C@]12CCN(CC3CC3)[C@H](C(=O)c3ccc(O)cc31)[C@@H]2C [EKC, ethylketocyclazocine]",non-biased
2,O=C(N[C@@H]1CC[C@@]2(O)C3Cc4ccc(O)c5c4[C@@]2(CCN3CC2CC2)[C@H]1O5)c1ccc2ccccc2c1 [NNTA],non-biased
3,Oc1ccc2c(c1)[C@@]13CCCC[C@@]1(O)[C@@H](C2)N(CC1CCC1)CC3 [butorphanol],showed bias toward G protein activation over arrestin
4,C[C@H]1[C@H]2Cc3ccc(O)cc3[C@]1(C)CCN2CC1CC1 [cyclazocine],showed bias toward G protein activation over arrestin; also recorded: biased toward G protein activation
5,CN1CC[C@]23CCCC[C@H]2[C@H]1Cc1ccc(O)cc13 [levorphanol],showed bias toward G protein activation over arrestin

# Biological target: T1, KOP receptor
# Assay: Competitive inhibition of 3H-diprenorphine binding, membranes of transfected HEK293T cells
# Design: host or cells: HEK293T
# Conditions: 100 μM compound, 0.3 nM 3H-diprenorphine, room temperature, 1 hour
# Protocol: Two days after transfection with human KOP receptor and GαoB, HEK293T cells were lysed and membranes were prepared in HEPES buffer (NaCl 140 mM, KCl 5.4 mM, HEPES 25 mM, EDTA 1 mM, MgCl2 2 mM, BSA 0.006%, pH 7.4) using a Polytron homogenizer. Membranes were incubated with ^3H-diprenorphine (0.3 nM) (PerkinElmer, Waltham, Mass.) at room temperature for 1 hour in a final volume of 1 ml, in the absence or presence of various concentrations of each small-molecule selected from the virtual screening. Membranes were then harvested using a Brandel cell harvester through a Whatman FPD-24 934AH glass-fiber filter and washed three times with ice-cold wash Buffer (Tris-HCl 10 mM, NaCl 120 mM, pH 7.4). Non-specific binding was determined using 400 nM of NorBNI.
# The primary experimental testing of MCKK-1-22 consisted of performing a competitive inhibition binding assay at the hKOP receptor. Membranes of HEK293T cells transfected with the hKOP receptor and GαoB were prepared and incubated with ^3H-diprenorphine (0.3 nM) in the absence or presence of 10 or 100 μM of each small-molecule from the virtual screening.
# To assess the degree of selectivity of MCKK-4, MCKK-5, MCKK-13, MCKK-17R or MCKK-17S for the hKOP over the DOP and MOP receptors, competitive inhibition of ^3H-diprenorphine (0.3 nM) binding in the absence or presence of various concentrations of each molecule were performed, and their Ki values for each receptor were determined (Table 2 below).
row,SMILES,inhibition of 3H-diprenorphine binding
1,"O=C(CN1CCCC1C(=O)Nc1nccs1)Nc1cccc(F)c1 (racemic) [MCKK-17, 1-(2-(3-fluorophenylamino)-2-oxoethyl)-N-(thiazol-2-yl)pyrrolidine-2-carboxamide]",partially but significantly inhibited

# Same assay, conditions: 100 μM compound, 0.3 nM 3H-diprenorphine, room temperature, 1 hour; listed as MCKK-17(R/S)
row,SMILES,inhibition of 3H-diprenorphine binding
1,"O=C(CN1CCCC1C(=O)Nc1nccs1)Nc1cccc(F)c1 (racemic) [MCKK-17, 1-(2-(3-fluorophenylamino)-2-oxoethyl)-N-(thiazol-2-yl)pyrrolidine-2-carboxamide]",significantly inhibited

# Biological target: T1, KOP receptor
# Assay: BRET-based G protein (GαoB) activation assay in HEK293T cells
# Assay type: cell-based
# Design: host or cells: HEK293T
# Conditions: hKOP co-expressed with GαoB-RLuc8, β1, mVenus-γ2; read-out: potency (EC50) of GαoB activation at hKOP
# From the text: as §1
# (§2) BRET was performed as described (Guo et al., 2008). Briefly, two days after transfection, cells were harvested, washed, and re-suspended in a phosphate-buffered saline (PBS) solution. Approximately 200,000 cells/well were distributed in 96-well plates, and 5 μM coelenterazine H (luciferase substrate) was added to each well. Five minutes after the addition of coelenterazine H, ligands were added to each well, and after 2 minutes for G protein activation or 5 minutes for arrestin recruitment, the BRET signal was determined by quantifying and calculating the ratio of the light emitted by mVenus, the energy acceptor (510-540 nm), over that emitted by RLuc8, the energy donor (485 nm). The drug-induced BRET signal was normalized, taking the Emax of the ethylketocyclazocine (EKC)-induced response as 100%. To measure cAMP accumulation, a BRET-based cAMP in a previously described YFP-Epac-RLuc (CAMYEL) assay was used (Jiang et al., 2007). GαoB B, β1, and γ2 were co-expressed to enhance the signal-to-noise ratio, and the cells were treated for 5 minutes with 100 μM forskolin prior to stimulation (Jiang et al., 2007). The data were normalized and represented as the percentage of forskolin-stimulated cAMP accumulation with 0 defined as the maximal inhibition elicited by EKC.
# To assess whether any of these molecules had agonistic activity, a BRET-based G protein activation assay where the hKOP receptor was co-expressed in HEK293T cells with GαoB-RLuc8, β1, and mVenus-γ2 was used. The drug-induced BRET signal is interpreted as a dissociation of and/or conformational change within the Gαβγ complex, and thus, as the activation of the co-expressed G protein.
row,SMILES,EC50 [µM]
1,"O=C(CN1CCCC1C(=O)Nc1nccs1)Nc1cccc(F)c1 (racemic) [MCKK-17, 1-(2-(3-fluorophenylamino)-2-oxoethyl)-N-(thiazol-2-yl)pyrrolidine-2-carboxamide]",8.3 ± 4

# Same assay, conditions: relative to EKC
row,SMILES,"agonistic activity at hKOP (G protein activation), in words"
1,"O=C(CN1CCCC1C(=O)Nc1nccs1)Nc1cccc(F)c1 (racemic) [MCKK-17, 1-(2-(3-fluorophenylamino)-2-oxoethyl)-N-(thiazol-2-yl)pyrrolidine-2-carboxamide]",exhibited agonistic activity

# Biological target: DOP receptor (Homo sapiens, UniProt P41143)
# Assay: BRET-based G protein activation assay
# Assay type: cell-based
# Design: expressed in transfected cells
# Conditions: read-out: potency of G protein activation at DOP
# Protocol: as §2
row,SMILES,EC50 [µM]
1,"O=C(CN1CCCC1C(=O)Nc1nccs1)Nc1cccc(F)c1 (racemic) [MCKK-17, 1-(2-(3-fluorophenylamino)-2-oxoethyl)-N-(thiazol-2-yl)pyrrolidine-2-carboxamide]",> 1000

# Biological target: MOP receptor (Homo sapiens, UniProt P35372)
# Assay: BRET-based G protein activation assay
# Assay type: cell-based
# Design: expressed in transfected cells
# Conditions: not given
# Protocol: as §2
row,SMILES,"agonistic activity at MOP (G protein activation), in words"
1,"O=C(CN1CCCC1C(=O)Nc1nccs1)Nc1cccc(F)c1 (racemic) [MCKK-17, 1-(2-(3-fluorophenylamino)-2-oxoethyl)-N-(thiazol-2-yl)pyrrolidine-2-carboxamide]",Neither the racemic nor the MCKK-17 stereoisomers displayed significant activity
